# Source: patent US10196393B2, “JAK inhibitors containing a 4-membered heterocyclic amide” (THERAVANCE BIOPHARMA R&D IP, LLC, priority 2017, dated 2019)
# Like-named read-outs stand apart in the source and are kept apart here.
# Key:
# Assay type in all cases: cell-based
# [1] = system: IL-2/anti-CD3 stimulated STAT5 phosphorylation in CD4+ T cells; experiment: Cellular JAK potency assay: inhibition of IL-2 stimulated pSTAT5 in CD4+ T cells; conditions: 0.5 h; CD4+ T cells in human PBMCs, 30 min stimulation; read-out: pIC50, inhibition of IL-2 stimulated pSTAT5 (converted)
# Description: Assay 9: Cellular JAK Potency Assay: Inhibition of IL-2 Stimulated pSTAT5 in CD4+ T Cells
# The potency of the test compound for inhibition of interleukin-2 (IL-2)/anti-CD3 stimulated STAT5 phosphorylation was measured in CD4-positive (CD4+) T cells in human peripheral blood mononuclear cells (PBMCs) isolated from human whole blood (Stanford Blood Center) using flow cytometry. Because IL-2 signals through JAK, this assay provides a measure of JAK cellular potency. […]
# (2) After cytokine stimulation, cells were fixed with pre warmed fix solution (200 μL; BD Biosciences) for 10 min at 37° C., 5% CO2, washed twice with DPBS buffer (1 mL, Life Technologies), and resuspended in ice cold Perm Buffer III (1000 μL, BD Biosciences) for 30 min at 4° C. […] After incubation, cells were washed twice in FACS buffer before being analyzed using a LSRII flow cytometer (BD Biosciences). To determine the inhibitory potency of test compounds in response to IL-2/anti-CD3, the median fluorescent intensity (MFI) of pSTAT5 was measured in CD4+ T cells. IC50 values were determined from analysis of the inhibition curves of MFI vs compound concentration. Data are expressed as pIC50 (negative decadic logarithm IC50) values.
# [2] = system: IFNγ induced CXCL10 and CXCL9 secretion in EpiAirway tissue cultures; experiment: Inhibition of IFNγ induced chemokines CXCL9 and CXCL10 in human 3D airway cultures; conditions: 192 h, Day 8, ±STDV
# Description: (§1) Assay 7: Inhibition of IFNγ and IL-27 Induced Chemokines CXCL9 and CXCL10 in Human 3D Airway Cultures
# (§2) EpiAirway tissue cultures were obtained from Mattek (AIR-100). Cultures were derived from asthmatic donors. In a cell culture insert, human derived tracheal/bronchial epithelial cells were grown and differentiated on a porous membrane support, allowing an air-liquid interface with warmed culture medium below the cells and a gaseous test atmosphere above. Tissues were cultured in maintenance media (Mattek, AIR-100-MM) in a 37° C., 5% CO2 humidified incubator. Four donors were tested. On Day 0, tissue cultures were treated with test compounds at 10 μM, 1 μM and/or 0.1 μM. Compounds were diluted in dimethyl sulfoxide (DMSO, Sigma) to a final concentration of 0.1%. DMSO at 0.1% was used as a vehicle control. Test compounds were incubated with cultures for 1 hour at 37° C., 5% CO2, followed by the addition of pre-warmed media containing IFNγ (R&D Systems) or IL-27 (R&D Systems) at a final concentration at 100 ng/ml. Tissue cultures were maintained for 8 days. Media was replaced every 2 days with fresh media containing compounds and IFNγ or IL-27. On Day 8, tissue cultures and supernatants were collected for analysis. Supernatant samples were assayed for CXCL10 (IP-10) and CXCL9 (MIG) using luminex analysis (EMD Millipore). Data is expressed as % Inhibition +/−standard deviation (±STDV). Percent inhibition was determined by compound inhibitory potency against IFNγ or IL-27 induced CXCL10 or CXCL9 secretion compared to vehicle treated cells. Data is the average from 3 or 4 donors. […] The compound of example 2 was able to inhibit IFNγ induced CXCL9 secretion by 93%±13 (at 10 μM) and 24%±49 (at 1 μM) when compared to vehicle.
# [3] = system: IL-5 mediated eosinophil survival in human eosinophils; experiment: IL-5 mediated eosinophil survival assay; conditions: 72 h, read-out: pIC50, IL-5 mediated eosinophil survival (converted)
# Description: Assay 6: IL-5 Mediated Eosinophil Survival Assay
# The potency of the test compound for IL-5 mediated eosinophil survival was measured in human eosinophils isolated from human whole blood (AllCells). Because IL-5 signals through JAK, this assay provides a measure of JAK cellular potency.
# Human eosinophils were isolated from fresh human whole blood (AllCells) of healthy donors. Blood was mixed with 4.5% Dextran (Sigma-Aldrich) in a 0.9% sodium chloride solution (Sigma-Aldrich). Red blood cells were left to sediment for 35 minutes. The leukocyte rich upper layer was removed and layered over Ficoll-Paque (GE Healthcare) and centrifuged at 600 g for 30 minutes. The plasma and mononuclear cell layers were removed before the granulocyte layer was lysed with water to remove any contaminating red blood cells. […] Purity was analyzed using a LSRII flow cytometer (BD Biosciences). […]
# After cytokine stimulation, cells were centrifuged at 300 g for 5 min and washed twice with cold DPBS (Life Technologies). To access viability and apoptosis, cells were incubated with Propidium Iodide (Thermo Fisher Scientific) and APC Annexin V (BD Biosciences) and analyzed using a LSRII flow cytometer (BD Biosciences). IC50 values were determined from analysis of the viability curves of percent cell viability vs compound concentration. Data are expressed as pIC50 (negative decadic logarithm IC50) values.
# [4] = system: IL-27 induced CXCL10 and CXCL9 secretion in EpiAirway tissue cultures; experiment: Inhibition of IL-27 induced chemokines CXCL9 and CXCL10 in human 3D airway cultures; conditions: 192 h, Day 8, ±STDV
# Description: as §1, §2
# [5] = read-out: % inhibition of IL-27 induced CXCL9 secretion
# [6] = read-out: % inhibition of IL-27 induced CXCL10 secretion
smiles,measurement,setting,value
"CCc1cc(O)c(F)cc1-c1ccc2c(-c3nc4c([nH]3)CN(C(C)C)[C@H](C(=O)N3CC(N(C)C)C3)C4)n[nH]c2c1 [Example 2, (S)-(3-(dimethylamino)azetidin-1-yl)(2-(6-(2-ethyl-5-fluoro-4-hydroxyphenyl)-1H-indazol-3-yl)-5-isopropyl-4,5,6,7-tetrahydro-3H-imidazo[4,5-c]pyridin-6-yl)methanone]",IC50,[1],~50.1 nM
same,inhibition at 0.1 µM,[2]; at 0.1 μM,6%
same,inhibition at 1 µM,[2]; at 1 μM,24%
same,inhibition at 10 µM,"[2]; 3 or 4 donors, read-out: % inhibition of IFNγ induced CXCL10 secretion",101%
same,inhibition at 10 µM,[2]; read-out: % inhibition of IFNγ induced CXCL9 secretion,93%
same,IC50,"[3]; in the presence of 10 pg/ml IL-5, 72 hours",25.1 nM
same,IC50,"[3]; in the presence of 1 ng/ml IL-5, 72 hours",631 nM
same,inhibition at 0.1 µM,[4]; [5],57%
same,inhibition at 0.1 µM,[4]; [6],69%
same,inhibition at 1 µM,[4]; [5],97%
same,inhibition at 1 µM,[4]; [6],101%
same,inhibition at 10 µM,[4]; [5],100%
same,inhibition at 10 µM,[4]; [6],108%
